Assay type in all cases: ADME, organism-based
Data set [1] in a line: Primary phase half life in C57BL/6N mouse at 0.171 mM, iv measured upto 24 hrs. To be noted: in vivo, read-out: alphat1/2 (converted).
Data set [2] is described as follows: Terminal half life in C57BL/6N mouse at 0.171 mM, iv measured upto 24 hrs. To be noted: in vivo, read-out: beta t1/2 (converted).
The nature of data set [3]: AUCt in C57BL/6N mouse at 0.171 mM, iv measured upto 24 hrs. The conditions noted are these: in vivo.
Data set [4] can be described thus: Clearance in C57BL/6N mouse at 0.171 mM, iv measured upto 24 hrs. To be noted: in vivo.
Data set [5] can be described thus: Volume of distribution in C57BL/6N mouse at 0.171 mM, iv measured upto 24 hrs. The conditions noted are these: in vivo.

Structures are written as SMILES.

Here are results for three molecules from ChEMBL document CHEMBL6096712, “Ligand Design with Accelerated Disulfide Formation with Serum Albumin to Extend Blood Retention” (ACS Med Chem Lett, 2025).

Regarding `CCCCCCCCCCCCCCCC(=O)NCCCCC(NC(=O)COCCOCCNC(=O)CCCCC[N+]1=C(/C=C/C2=CC(=C/C=C3/N(C)c4ccc(S(=O)(=O)O)cc4C3(C)C)/CCC2)C(C)(C)c2cc(S(=O)(=O)[O-])ccc21)C(=O)NCCOCCOCC(=O)NCCOCCOCC(=O)NC(CSSc1ccccn1)C(N)=O` (centres undefined), the half-life at 171 µM in data set [1] was 1.51 h; in data set [2], 7.62 h. Besides, the AUC(0-t) (in general, the area under the concentration-time curve up to a stated or last time point) at 24 h, 171 µM in data set [3] came to 146000 ng·h/mL. For the same molecule, in data set [4], the clearance – broadly, the volume of plasma or blood freed of the substance per unit of time – at 171 µM is 0.135 mL/min/kg. Besides, the Vd – broadly, the apparent volume that relates the amount in the body to the concentration in plasma or blood – at 171 µM in data set [5] was determined as 0.0284 L/kg.

For the molecule `CCCCCCCCCCCCCCCC(=O)NCCCCC(NC(=O)COCCOCCNC(=O)CCCCC[N+]1=C(/C=C/C2=CC(=C/C=C3/N(C)c4ccc(S(=O)(=O)O)cc4C3(C)C)/CCC2)C(C)(C)c2cc(S(=O)(=O)[O-])ccc21)C(=O)NCCOCCOCC(=O)NCCOCCOCC(N)=O` (centres undefined), in data set [2], the half-life at 171 µM was 0.83 h. The molecule also returned an AUC(0-t) at 24 h, 171 µM in data set [3] of 30800 ng·h/mL. For the same molecule, the clearance at 171 µM in data set [4] is 0.563 mL/min/kg. In data set [5], the Vd at 171 µM turned out to be 0.0427 L/kg.

For `CN1/C(=C/C=C2C=C(/C=C/C3=[N+](CCCCCC(=O)NCCOCCOCC(=O)NCCOCCOCC(=O)NCCOCCOCC(=O)NC(CSSc4ccccn4)C(N)=O)c4ccc(S(=O)(=O)[O-])cc4C3(C)C)CCC/2)C(C)(C)c2cc(S(=O)(=O)O)ccc21` (centres undefined), the half-life at 171 µM is 1.26 h in data set [1] and 4.73 h in data set [2]. This molecule gave an AUC(0-t) at 24 h, 171 µM in data set [3] of 50500 ng·h/mL. This molecule gave a clearance at 171 µM in data set [4] of 0.307 mL/min/kg. The molecule further gave a Vd at 171 µM in data set [5] of 0.0413 L/kg.
